Measured values taken from PubChem BioAssay (NCI).
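Growth conditions: 96-well plates. Treatment: test compound, 48 hours, 5 concentrations. Analysis: linear interpolation between bracketing concentrations; unreached endpoints set to highest concentration. The concentration for 50% growth inhibition is given as GI50. Definition used: TGI = concentration required for complete inhibition of growth.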

Legend:
Test in all cases: NCI tumour cell line growth inhibition, 48 h
EKVX NSCLC = tested on: EKVX NSCLC
RPMI-8226 leukemia = tested on: RPMI-8226 leukemia
RXF 393 renal = tested on: RXF 393 renal
HCT-15 colon = tested on: HCT-15 colon
HL-60(TB) leukemia = tested on: HL-60(TB) leukemia
HOP-62 NSCLC = tested on: HOP-62 NSCLC
SK-MEL-28 melanoma = tested on: SK-MEL-28 melanoma
HCT-116 colon = tested on: HCT-116 colon
SK-MEL-5 melanoma = tested on: SK-MEL-5 melanoma
UACC-62 melanoma = tested on: UACC-62 melanoma

SMILES	TGI (EKVX NSCLC) [µM]	TGI (RPMI-8226 leukemia) [µM]	TGI (RXF 393 renal) [µM]	TGI (HCT-15 colon) [µM]	TGI (HL-60(TB) leukemia) [µM]	TGI (HOP-62 NSCLC) [µM]	TGI (SK-MEL-28 melanoma) [µM]	TGI (HCT-116 colon) [µM]	TGI (SK-MEL-5 melanoma) [µM]	TGI (UACC-62 melanoma) [µM]	GI50 (EKVX NSCLC) [µM]	GI50 (RPMI-8226 leukemia) [µM]	GI50 (RXF 393 renal) [µM]	GI50 (HCT-15 colon) [µM]	GI50 (HL-60(TB) leukemia) [µM]	GI50 (HOP-62 NSCLC) [µM]	GI50 (SK-MEL-28 melanoma) [µM]	GI50 (HCT-116 colon) [µM]	GI50 (SK-MEL-5 melanoma) [µM]	GI50 (UACC-62 melanoma) [µM]
O=c1c2cccc3cccc(c4n1CCN=4)c32	> 100	> 100	> 100	> 100	> 100	> 100	> 100	> 100	> 100	> 100										
COc1ccc(OC)c(-c2cc(-c3ccc(Cl)cc3)nn2-c2ccc(S(=O)(=O)NC(C)=O)cc2)c1	28	7.5	> 100	18.8	41.9	22.2	57.9	11.2	15.5	11.2	14.3	4.75	23.1	3.29	3.7	10.5	21.3	2.84	2.07	3.22
CN1C(=O)N[C@H]2[C@@H]3NC(=O)c4ccc(Br)n4[C@@H]3C[C@]21O	4.98	0.417	0.486	8.49	0.132	1.09	0.262	2.39	0.0653	1.18	0.868	0.0831	0.0565	0.979	0.0324	0.117	0.0317	0.112	< 0.0148	0.0861
CC(C)(C)CC(C)(C)NCc1cc(C(C)(C)C)cc(CNC(C)(C)CC(C)(C)C)c1O	14.1	6.49	5.85	12.5	8.04	17.9	17.6	5.78	2.96	12.3	2.78	2.46	1.92	3.22	2.51	4.69	5.24	2.1	1.61	3.34
C=C1CCC2C(C)(COC(=O)CC)C(OC(=O)CC)CCC2(C)C1C/C=C1/C(=O)OCC1OC(=O)CC (centres undefined)	22.1	> 100	3.05	6	5.85	3.27	4.1	2.55	4.39	5.2	7.96	3.77	1.66	1.96	1.82	1.7	1.95	1.14	2.08	2.23
COC(=O)c1cc(O)c2c(c1C(=O)OC)C[C@H]1[C@@H]3CC=C4C[C@@H](O)CC[C@]4(C)[C@H]3CC[C@]21C	21.7	4.96	3.39	35.1	6.93	6.27	8.59	14.6			3.29	1.57	1.19	3.03	3.03	2.24	2.71	3.09		
COC(=O)C1[C@H](c2cc(OC)c(OC)c(OC)c2)OC(=O)C1(C(=O)OC)C(=O)c1ccc2c(c1)OCO2 (some centres undefined)	> 100	> 100	> 100	> 100	> 100	> 100	> 100	> 100	> 100	> 100										
CC1(CCC(=O)OC2CCCCC2)OCCO1	> 100	> 100	> 100	> 100	> 100	> 100	> 100	> 100	> 100	> 100										
FC(F)(F)C1(Br)C(c2ccccc2)=C1c1ccccc1	> 100	> 100	31.7	28	> 100	39.4	33.8	20.2	28.8	30.8										
COc1cc(Nc2nc3ccccc3cc2C(=O)Nc2ccc(F)c(F)c2)cc(OC)c1OC	> 100	6.07	7.98	> 100	7.14	12.2	> 100	9.08	3.11	4.46	2.87	2.16	2.73	2.91	2.43	2.73	3.54	2.84	1.62	1.68
Cc1cc(N(CCC#N)S(C)(=O)=O)ccc1C=Nc1ccc(C(=O)NN2C(=O)/C(=C/c3ccc(N(CCC#N)CCC#N)cc3C)N=C2c2cc([N+](=O)[O-])ccc2Cl)cc1	> 100	> 100	> 100	> 100	> 100	> 100	> 100	> 100	> 100	> 100										
Cc1nc(N2CCC3(CC2)CO[C@@H](C)[C@H]3N)c(CO)nc1Sc1ccnc(N)c1Cl	> 100	> 100	> 30.6	> 100	> 100	> 100	> 100	> 100	35	> 100	0.449	49.3	2.53	> 100	> 100	28	> 100	59.7	14.1	> 100
CCCC(CCC)C(=O)OCC1(CO)C/C(=C\c2ccc(F)cc2)C(=O)O1 (centres undefined)	34.3	7.15	36.6	26.2	8.36	17	28	27.1	17	23.8	7.67	0.845	15.6	12.5	0.907	4.11	14.7	13.6	0.829	8.16
CC/C(CC(=O)CCC(=O)Nc1ccccc1[N+](=O)[O-])=N/NC(=O)C[n+]1ccccc1	> 100	> 100	> 100	> 100	> 100	> 100	> 100	> 100	> 100	> 100										
CCOC(=O)C(C)(C)Oc1ccc(/C=C/C(=O)c2ccc(Cl)cc2)cc1	> 100	53	30.5	34.3	> 100	> 100	34.7	31.5	28.3	44										
CN1C(=O)C(=O)c2cc3c(c4c2c1cc1ccccc14)OCO3	> 100	> 100	96.8	> 100	> 100	> 100	> 100	> 100	> 100	38.5										

SMILES	TGI (EKVX NSCLC) [µM]	TGI (RPMI-8226 leukemia) [µM]	TGI (RXF 393 renal) [µM]	TGI (HCT-15 colon) [µM]	TGI (HL-60(TB) leukemia) [µM]	TGI (HOP-62 NSCLC) [µM]	TGI (SK-MEL-28 melanoma) [µM]	TGI (HCT-116 colon) [µM]	TGI (SK-MEL-5 melanoma) [µM]	TGI (UACC-62 melanoma) [µM]	GI50 (EKVX NSCLC) [µM]	GI50 (RPMI-8226 leukemia) [µM]	GI50 (RXF 393 renal) [µM]	GI50 (HCT-15 colon) [µM]	GI50 (HL-60(TB) leukemia) [µM]	GI50 (HOP-62 NSCLC) [µM]	GI50 (SK-MEL-28 melanoma) [µM]	GI50 (HCT-116 colon) [µM]	GI50 (SK-MEL-5 melanoma) [µM]	GI50 (UACC-62 melanoma) [µM]
O=C1OC(O)C(Oc2c(Cl)cccc2Cl)=C1Cl (centres undefined)	73.2	57	23.9	29	50.1	34.7	45.7	27.9	27.5	24.7										
COC(=O)C(Cc1nc2ccccc2[nH]c1=O)C(=O)C(=O)Nc1ccc([N+](=O)[O-])cc1[N+](=O)[O-] (centres undefined)	51.2	85.1	36.8	34.5	66.5	45.4	40.1	46.5	33.1	38.9										
O=C(O)C(Cl)(c1ccccc1)c1ccccc1	> 100	> 100	> 100	> 100	> 100	> 100	> 100	> 100	> 100	> 100										
C/C=C/CC(C)[C@@H](O)[C@H](NC)C(=O)O (some centres undefined)	> 100	> 100	> 100	> 100	> 100	> 100	> 100		> 100	> 100										
Cc1cccc(C)c1NC(=O)Nc1ccc(S(N)(=O)=O)cc1	> 100	> 100	> 100	> 100	> 100	> 100	> 100	> 100	> 100	> 100										
N#CC1=C(N)NC(N2CCOCC2)=NC12Nc1ccccc1N2	> 100	> 100	40.7	> 100	> 100	32.5	> 100	> 100	32	82.1	> 100	24.2	14.2	35.2	44.2	6.09	55.8	16	15	32.2
CCn1c(-c2cc3ccccc3cc2O)nn(C(=O)c2c(Cl)cccc2Cl)c1=S	> 50	46.1	> 50	> 50	38.7	> 50	> 50	> 50	19.7	> 50	> 50	13.3	14.5	16.3	14.3	24.2	> 50	28.5	10	17.2
O=C1C(Cl)C(c2ccccc2O)N1n1cnc2ccccc2c1=O (centres undefined)	88.5	> 100	95.7	15.1	> 100	> 100	> 100	> 100	> 100	> 100										
O=c1[nH]c2cc(Cl)ccc2nc1/C(=N\O)C(O)c1ccc([N+](=O)[O-])cc1 (centres undefined)	> 100	> 100	> 100	> 100	> 100	> 100		> 100	> 100	> 100										
Cc1cc(C)c(Cn2cnc3c(Cl)ncnc32)c(C)c1CCl	> 100	> 100	> 100	18.8	59.9	> 100		> 100	> 100	> 100	> 100	24.4	> 100	0.343	27.2	> 100		68.8	> 100	61.3
Cn1c2ccc(Br)cc2c2c3c(c4c5ccccc5[nH]c4c21)C(=O)N(O)C3=O	0.896	0.672	0.329		1.85	0.653	0.498	0.414	0.266	0.529	0.232	0.151	0.158		0.301	0.131	0.212	0.112	0.128	0.183
CNC(=O)Cc1nc(-c2cccc(NS(=O)(=O)c3c(F)cccc3F)c2F)c(-c2ccnc(Nc3ccccc3)n2)s1	> 50	> 47.9	2.84	> 50	> 50	> 50	> 50	> 29.2	> 19.8		22.4	14.3	0.181	7.37	3.96	3.27	0.0185	1.05	0.0866	
CC[N+]1(C)CCC(O)(c2ccc(OC)cc2)C(C(=O)c2ccc(OC)cc2)C1 (centres undefined)	41.6	5.92	23.9	25.3	8.9	34.1	29.3	28.1	29.5	38.4										
CCCN(CCCC(NC(C)=O)C(=O)NCc1ccccc1)C(=O)NCCCl (centres undefined)	> 100	> 100	> 100	> 100	> 100	> 100	> 100	> 100		> 100										
COC1=CC(=O)C2C(C1=O)C(c1ccccc1)[C@H]2C (some centres undefined)	> 100	> 100	> 100	35.9	> 100	> 100	> 100		> 100	> 100										
COc1ccc(OC)c2c1[nH]c(=O)c1c3ncccc3cn21	> 100	> 100	4.47	> 100	> 100	> 100		13.2	> 100	> 100	4.91	6.78	1.38	3.27	3.13	3.22		1.85	3.79	4.43
